Target: T1, p38 MAP kinase (Homo sapiens, UniProt Q16539)
T1 construct: made in house; host or cells: E. coli (co-expressed with SEK-1 and MEKK)
Experiment: p38 (MAP) kinase in vitro assay (transfer of γ-33P from ATP to Myelin Basic Protein)
Type: biochemical
Details: phosphorylated recombinant p38 MAP kinase, MBP substrate, γ-33P-ATP, 30° C.
Procedure: This example illustrates a p38 (MAP) kinase in vitro assay useful for evaluating the compounds of the invention.
The p38 MAP kinase inhibitory activity of compounds of this invention in vitro was determined by measuring the transfer of the γ-phosphate from γ-^33P-ATP by p-38 kinase to Myelin Basic Protein (MBP), using a minor modification of the method described in Ahn, et al., J. Biol. Chem. 266:4220-4227 (1991).
The phosphorylated form of the recombinant p38 MAP kinase was co-expressed with SEK-1 and MEKK in E. Coli (see, Khokhlatchev, et al., J. Biol. Chem. 272:11057-11062 (1997)) and then purified by affinity chromatography using a Nickel column.
The phosphorylated p38 MAP kinase was diluted in kinase buffer (20 mM 3-(N-morpholino)propanesulfonic acid, pH 7.2, 25 mM β-glycerol phosphate, 5 mM ethylene glycol-bis(beta-aminoethyl ether)-N,N,N′,N′-tetraacetic acid, 1 mM sodium ortho-vanadate, 1 mM dithiothreitol, 40 mM magnesium chloride). Test compound dissolved in DMSO or only DMSO (control) was added and the samples were incubated for 10 min at 30° C. The kinase reaction was initiated by the addition of a substrate cocktail containing MBP and γ-^33P-ATP. […] The phosphorylated MBP was then separated from the residual γ-^33P-ATP using a phosphocellulose membrane (Millipore, Bedfrod, Mass.) and quantitated using a scintillation counter (Packard, Meriden, Conn.).

T1 sequence (Q16539 whole entry): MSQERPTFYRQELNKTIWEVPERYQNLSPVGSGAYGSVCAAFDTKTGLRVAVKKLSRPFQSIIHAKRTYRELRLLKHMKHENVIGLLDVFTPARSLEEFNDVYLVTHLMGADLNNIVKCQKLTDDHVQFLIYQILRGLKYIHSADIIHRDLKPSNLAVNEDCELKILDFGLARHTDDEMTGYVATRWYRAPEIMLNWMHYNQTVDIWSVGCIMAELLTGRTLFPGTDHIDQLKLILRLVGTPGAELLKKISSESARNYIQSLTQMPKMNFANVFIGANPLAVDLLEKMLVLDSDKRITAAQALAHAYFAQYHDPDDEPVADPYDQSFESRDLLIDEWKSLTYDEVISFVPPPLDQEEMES

IC50: ~3 nM
Compound: CNC(=O)c1ccc(C)c(-c2cc3[nH]nc(N4CCCCC4)c3n(C)c2=O)c1 [Compound 8, 4,N-Dimethyl-3-(4-methyl-5-oxo-3-piperidin-1-yl-4,5-dihydro-1H-pyrazolo[4,3-b]pyridin-6-yl)-benzamide]

Reference: patent US20080207684A1, “Kinase inhibitors and methods for using the same” (Roche Palo Alto LLC, priority 2007, published 2008)
